In US20100048950A1 (BOEHRINGER INGELHEIM INTERNATIONAL GMBH, priority 2007, published 2010):

Molecular target: T1, human glucocorticoid receptor (GR) complex (Homo sapiens, UniProt P04150)
T1 construct: made in house; host or cells: insect expression system (baculovirus lysate)
T1 sequence (P04150 1-777): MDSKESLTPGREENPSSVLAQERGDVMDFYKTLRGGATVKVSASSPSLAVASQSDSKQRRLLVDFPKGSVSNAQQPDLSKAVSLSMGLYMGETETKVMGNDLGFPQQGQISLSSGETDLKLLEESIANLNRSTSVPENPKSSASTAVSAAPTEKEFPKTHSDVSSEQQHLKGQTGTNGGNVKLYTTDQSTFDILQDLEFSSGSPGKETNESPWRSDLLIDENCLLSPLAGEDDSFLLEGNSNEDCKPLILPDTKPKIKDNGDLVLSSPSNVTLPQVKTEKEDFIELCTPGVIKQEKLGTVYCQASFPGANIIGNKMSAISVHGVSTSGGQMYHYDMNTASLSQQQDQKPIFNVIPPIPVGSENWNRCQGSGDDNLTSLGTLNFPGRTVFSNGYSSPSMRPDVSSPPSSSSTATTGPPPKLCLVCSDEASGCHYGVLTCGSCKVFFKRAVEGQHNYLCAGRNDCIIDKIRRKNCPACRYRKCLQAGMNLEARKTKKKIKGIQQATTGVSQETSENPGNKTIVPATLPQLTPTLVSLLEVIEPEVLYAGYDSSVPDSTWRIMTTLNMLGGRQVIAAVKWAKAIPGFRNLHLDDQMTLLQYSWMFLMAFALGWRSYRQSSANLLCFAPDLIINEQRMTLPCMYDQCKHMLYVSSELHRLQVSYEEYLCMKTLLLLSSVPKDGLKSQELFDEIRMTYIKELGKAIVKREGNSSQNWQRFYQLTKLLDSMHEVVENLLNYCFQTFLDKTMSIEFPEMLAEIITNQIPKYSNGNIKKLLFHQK
Assay: Glucocorticoid receptor competitive binding assay (fluorescence polarization)
Conditions: competition with TAMRA-labeled dexamethasone, read-out: potent activity (IC50) in the GR binding assay
Protocol: Compounds of the invention were evaluated for binding to the steroid receptor by a fluorescence polarization competitive binding assay. Detailed descriptions for preparation of recombinant glucocorticoid receptor (GR) complex used in the assay is described in U.S. Patent Application Publication No. US 2003/0017503, filed May 20, 2002, and incorporated herein by reference in its entirety. Preparation of the tetramethylrhodamine (TAMRA)-labeled dexamethasone probe was accomplished using a standard literature procedure (M. Pons et al., J. Steroid Biochem., 1985, 22, pp. 267-273).
The affinity of the probe for the steroid receptor was then determined in a titration experiment. The fluorescence polarization value of the probe in assay buffer was measured on an SLM-8100 fluorometer using the excitation and emission maximum values described above. Aliquots of expression vector lysate were added and fluorescence polarization was measured after each addition until no further change in polarization value was observed. Non-linear least squares regression analysis was used to calculate the dissociation constant of the probe from the polarization values obtained for lysate binding to the probe.
This assay uses fluorescence polarization (FP) to quantitate the ability of test compounds to compete with tetramethylrhodamine (TAMRA)-labeled dexamethasone for binding to a human glucocorticoid receptor (GR) complex prepared from an insect expression system. The assay buffer was: 10 mM TES, 50 mM KCl, 20 mM Na2MoO4.2H2O, 1.5 mM EDTA, 0.04% w/v CHAPS, 10% v/v glycerol, 1 mM dithiothreitol, pH 7.4. Test compounds were dissolved to 1 mM in neat DMSO and then further diluted to 10× assay concentration in assay buffer supplemented with 10% v/v DMSO. Test compounds were serially diluted at 10× assay concentrations in 10% DMSO-containing buffer in 96-well polypropylene plates. Binding reaction mixtures were prepared in 96-well black Dynex microtiter plates by sequential addition of the following assay components to each well: 15 μL of 10× test compound solution, 85 μL of GR-containing baculovirus lysate diluted 1:170 in assay buffer, and 50 μL of 15 nM TAMRA-labeled dexamethasone. Positive controls were reaction mixtures containing no test compound; negative controls (blanks) were reaction mixtures containing 0.7 μM to 2 μM dexamethasone. The binding reactions were incubated for 1 hour at room temperature and then read for fluorescence polarization in the LJL Analyst set to 550 nm excitation and 580 nm emission, with the Rhodamine 561 dichroic mirror installed. IC50 values were determined by iterative non-linear curve fitting of the FP signal data to a 4-parameter logistic equation.

| Structure (SMILES) | IC50 [nM] |
| --- | --- |
| Cc1cc(C)c(S(=O)(=O)NC(CSc2ccc(Cl)c(Cl)c2)C(F)(F)F)c(C)c1 (stereo not drawn) [N-[1-(3,4-Dichlorophenylsulfanylmethyl)-2,2,2-trifluoroethyl]-2,4,6-trimethylbenzenesulfonamide] | ≤ 100 |
| Cc1cc(C)c(S(=O)(=O)NC(COc2cccc3c2CCCC3=O)C(F)(F)F)c(C)c1 (stereo not drawn) [2,4,6-Trimethyl-N-[2,2,2-trifluoro-1-(5-oxo-5,6,7,8-tetrahydronaphthalen-1-yloxymethyl)ethyl]benzenesulfonamide] | ≤ 100 |
| Cc1cc(C)c(S(=O)(=O)NC(COc2cccc3c2CCC3=O)C(F)(F)F)c(C)c1 (stereo not drawn) [2,4,6-Trimethyl-N-[2,2,2-trifluoro-1-(1-oxoindan-4-yloxymethyl)ethyl]benzenesulfonamide] | ≤ 100 |
| Cc1cc(C)c(S(=O)(=O)NC(CN(C)c2ccccc2OC(F)(F)F)C(F)(F)F)c(C)c1 (stereo not drawn) [2,4,6-Trimethyl-N-(2,2,2-trifluoro-1-{[methyl-(2-trifluoromethoxyphenyl)amino]methyl}-ethyl)benzenesulfonamide] | ≤ 100 |
| COC(=O)c1ccccc1N(C)CC(NS(=O)(=O)c1c(C)cc(C)cc1C)C(F)(F)F (stereo not drawn) [2-{Methyl-[3,3,3-trifluoro-2-(2,4,6-trimethylbenzenesulfonylamino)propyl]amino}benzoic acid methyl ester] | ≤ 100 |
| COC(=O)c1ccccc1SCC(NS(=O)(=O)c1c(C)cc(C)cc1C)C(F)(F)F (stereo not drawn) [2-[3,3,3-Trifluoro-2-(2,4,6-trimethylbenzenesulfonylamino)propylsulfanyl]benzoic acid methyl ester] | ≤ 100 |
| Cc1cc(C)c(S(=O)(=O)NC(COc2ccccc2C(F)(F)F)C(F)(F)F)c(C)c1 (stereo not drawn) [2,4,6-Trimethyl-N-[2,2,2-trifluoro-1-(2-trifluoromethylphenoxymethyl)ethyl]benzenesulfonamide] | ≤ 100 |
| Cc1cc(C)c(S(=O)(=O)NC(COc2cc(C)ccc2Cl)C(F)(F)F)c(C)c1 (stereo not drawn) [N-[1-(2-Chloro-5-methylphenoxymethyl)-2,2,2-trifluoroethyl]-2,4,6-trimethylbenzenesulfonamide] | ≤ 100 |
| Cc1cc(C)c(S(=O)(=O)NC(CNc2ccccc2Cl)C(F)(F)F)c(C)c1 (stereo not drawn) [N-{1-[(2-Chlorophenylamino)methyl]-2,2,2-trifluoroethyl}-2,4,6-trimethylbenzenesulfonamide] | ≤ 100 |
| COC(=O)c1ccccc1NCC(NS(=O)(=O)c1c(C)cc(C)cc1C)C(F)(F)F (stereo not drawn) [2-[3,3,3-Trifluoro-2-(2,4,6-trimethylbenzenesulfonylamino)propylamino]benzoic acid methyl ester] | ≤ 100 |
| Cc1cc(C)c(S(=O)(=O)NC(COc2cccc3ccccc23)C(F)(F)F)c(C)c1 (stereo not drawn) [2,4,6-Trimethyl-N-[2,2,2-trifluoro-1-(naphthalen-1-yloxymethyl)ethyl]benzenesulfonamide] | ≤ 100 |
| Cc1cc(C)c(S(=O)(=O)NC(COc2ccc(Cl)c(C(F)(F)F)c2)C(F)(F)F)c(C)c1 (stereo not drawn) [N-[1-(4-Chloro-3-trifluoromethylphenoxymethyl)-2,2,2-trifluoroethyl]-2,4,6-trimethylbenzenesulfonamide] | ≤ 100 |
| Cc1cc(C)c(S(=O)(=O)NC(CSc2ccc(Cl)cc2Cl)C(F)(F)F)c(C)c1 (stereo not drawn) [N-[1-(2,4-Dichlorophenylsulfanylmethyl)-2,2,2-trifluoroethyl]-2,4,6-trimethylbenzenesulfonamide] | ≤ 100 |
| Cc1cc(C)c(S(=O)(=O)NC(COc2cc(C)c(C#N)c(C)c2)C(F)(F)F)c(C)c1 (stereo not drawn) [N-[1-(4-Cyano-3,5-dimethylphenoxymethyl)-2,2,2-trifluoroethyl]-2,4,6-trimethylbenzenesulfonamide] | ≤ 100 |
| Cc1cc(C)c(S(=O)(=O)NC(COc2ccc(C#N)c(Cl)c2)C(F)(F)F)c(C)c1 (stereo not drawn) [N-[1-(3-Chloro-4-cyanophenoxymethyl)-2,2,2-trifluoroethyl]-2,4,6-trimethylbenzenesulfonamide] | ≤ 100 |
| Cc1cc(C)c(S(=O)(=O)NC(CNc2ccc(C#N)cc2)C(F)(F)F)c(C)c1 (stereo not drawn) [N-{1-[(4-Cyanophenylamino)methyl]-2,2,2-trifluoroethyl}-2,4,6-trimethylbenzenesulfonamide] | ≤ 100 |
| CSc1cccc(NCC(NS(=O)(=O)c2c(C)cc(C)cc2C)C(F)(F)F)c1 (stereo not drawn) [2,4,6-Trimethyl-N-{2,2,2-trifluoro-1-[(3-methylsulfanylphenylamino)methyl]ethyl}benzenesulfonamide] | ≤ 100 |
| Cc1ccc(SCC(NS(=O)(=O)c2c(N)cc(Cl)cc2Cl)C(F)(F)F)cc1 (stereo not drawn) [2-Amino-4,6-dichloro-N-(2,2,2-trifluoro-1-p-tolylsulfanylmethylethyl)benzenesulfonamide] | ≤ 100 |
| Cc1cc(C)c(S(=O)(=O)NC(COc2cccc3c2CCCC3)C(F)(F)F)c(C)c1 (stereo not drawn) [2,4,6-Trimethyl-N-[2,2,2-trifluoro-1-(5,6,7,8-tetrahydronaphthalen-1-yloxymethyl)ethyl]benzenesulfonamide] | ≤ 100 |
| Cc1cc(C)cc(OCC(NS(=O)(=O)c2c(C)cc(C)cc2C)C(F)(F)F)c1 (stereo not drawn) [N-[1-(3,5-Dimethylphenoxymethyl)-2,2,2-trifluoroethyl]-2,4,6-trimethylbenzenesulfonamide] | ≤ 100 |
| Cc1cc(C)c(S(=O)(=O)NC(CNc2c(F)cc(F)cc2F)C(F)(F)F)c(C)c1 (stereo not drawn) [2,4,6-Trimethyl-N-{2,2,2-trifluoro-1-[(2,4,6-trifluorophenylamino)methyl]ethyl}benzenesulfonamide] | ≤ 100 |
| Cc1cc(C)c(S(=O)(=O)NC(COc2ccc(Cl)cc2)C(F)(F)F)c(C)c1 (stereo not drawn) | ≤ 100 |
| Cc1cc(C)c(S(=O)(=O)NC(CNc2c(Cl)cc(Cl)cc2Cl)C(F)(F)F)c(C)c1 (stereo not drawn) [2,4,6-Trimethyl-N-{2,2,2-trifluoro-1-[(2,4,6-trichlorophenylamino)methyl]ethyl}benzenesulfonamide] | ≤ 100 |
| Cc1cc(C)c(S(=O)(=O)NC(CNc2ccc(Cl)cc2)C(F)(F)F)c(C)c1 (stereo not drawn) | ≤ 100 |
| Cc1cc(C)c(S(=O)(=O)NC(COc2ccc(C(F)(F)F)cc2)C(F)(F)F)c(C)c1 (stereo not drawn) [2,4,6-Trimethyl-N-[2,2,2-trifluoro-1-(4-trifluoromethylphenoxymethyl)ethyl]benzenesulfonamide] | ≤ 100 |
| CCOc1cccc(SCC(NS(=O)(=O)c2c(C)cc(C)cc2C)C(F)(F)F)c1 (stereo not drawn) [N-[1-(3-Ethoxyphenylsulfanylmethyl)-2,2,2-trifluoroethyl]-2,4,6-trimethylbenzenesulfonamide] | ≤ 100 |
| Cc1cc(C)c(S(=O)(=O)NC(COc2ccc(Br)cc2)C(F)(F)F)c(C)c1 (stereo not drawn) [N-[1-(4-Bromophenoxymethyl)-2,2,2-trifluoroethyl]-2,4,6-trimethylbenzenesulfonamide] | ≤ 100 |
| Cc1cc(C)c(S(=O)(=O)NC(CSc2ccc(Cl)cc2)C(F)(F)F)c(C)c1 (stereo not drawn) [N-[1-(4-Chlorophenylsulfanylmethyl)-2,2,2-trifluoroethyl]-2,4,6-trimethylbenzenesulfonamide] | ≤ 100 |
| Cc1cc(C)c(S(=O)(=O)NC(CNc2cccc(C#N)c2)C(F)(F)F)c(C)c1 (stereo not drawn) [N-{1-[(3-Cyanophenylamino)methyl]-2,2,2-trifluoroethyl}-2,4,6-trimethylbenzenesulfonamide] | ≤ 100 |
| Cc1cc(C)c(S(=O)(=O)NC(CNc2ccc(Cl)cc2C#N)C(F)(F)F)c(C)c1 (stereo not drawn) [N-{1-[(4-Chloro-2-cyanophenylamino)methyl]-2,2,2-trifluoroethyl}-2,4,6-trimethylbenzenesulfonamide] | ≤ 100 |
